According to publication PMC11341980, “Dual TTK/PLK1 inhibition has potent anticancer activity in TNBC as monotherapy and in combination” (Frontiers in Oncology, 2024):
Marks after values point to notes of the source that are not given here.

Tests used:
[1] = test system: KT-associated BubR1; assay: Immunofluorescence of BubR1 at kinetochores in HT29 cells; type: cell-based; conditions: nocodazole-blocked mitotic HT29 cells, 1 hour, GI50 concentration
Method: Immunoblotting, SAC co-immunoprecipitation assays and immunofluorescence microscopy were performed using standard procedures as outlined in the Supplementary Information .
Cells were seeded on 13-mm glass coverslips in full medium and left to adhere O/N. After the appropriate treatments, cells were fixed with ice-cold 100% methanol for 5 min at -20°C and then rehydrated in PBS for 10 min. Coverslips were blocked for 30 min with 3% BSA (w/v) in PBS (BP) and then incubated with a 1:100 or 1:1000 dilution of BubR1 or CENP-C primary antibodies in BP, respectively, for 1 h in a moist environment. […] Images were projected (maximum intensity projection) using the NIS Elements AR software (Nikon) and quantification was performed using the General Analysis 2 tool. The quantification process comprised the following steps: selection of mitotic cells via intensity measurement of a threshold DAPI signal; generation of a kinetochore mask based on the intensity of bright spots (CENPC signal) inside the selected nuclei; generation of a tertiary mask for the BubR1 signal at kinetochores and BubR1 background measurements in the selected nuclei; export of reference images and signal intensities per cell.

[2] = test system: HT29 cells; assay: Cell growth assay, GI50s used for SAC analyses; type: cell-based; conditions: Homo sapiens, HT-29; 120 h cell growth assay
Method: Cell lines were seeded in appropriate culture medium into 96-well plates and 9 serial compound dilutions (0.004 – 1 μM) were added 24 h later for 120 h. Residual cells were stained with crystal violet or YO-PRO (Molecular Probes, #Y-3603). GI50 values were calculated by fitting the data to a sigmoidal dose–response model with a variable slope using GraphPad Prism software after subtraction of the starting control signal.

[3] = test system: MDA-MB-231 xenograft; set-up: method as in PMID 28270606; conditions: daily dosing, MDA-MB-231 xenografted mice; cited from earlier work
[4] = test system: BR1282 TNBC PDX; assay: BR1282 PDX combination with carboplatin; type: in vivo, mice; conditions: carboplatin 60 mg/kg, IV, QW
Method: Samples were snap frozen and stored at -80 °C. […] Carboplatin was prepared in 5% glucose in pure water.

[5] = test system: SK-OV-3 ovarian cell-derived xenograft; assay: SK-OV-3 xenograft combination study with carboplatin; conditions: carboplatin 60 mg/kg, QW, IV alone
Method: (§1) Animal studies were performed by Charles-River Laboratories (Wilmington, Massachusetts, USA; MDA-MB-231 xenograft experiments) or Crown Biosciences Inc, (Taicang, China; SK-OV-3 xenograft and TNBC PDX screening experiments). All studies were performed in adherence with local ethical rules.
5x10^6 MDA-MB-231 cells were injected subcutaneously (s.c.) in the flank of NCr nude mice (n=8-15/group for efficacy experiments, n=2-3/group for tumor pharmacodynamic evaluation), 1x10^7 SK-OV-3 cells were injected s.c. in the flank of Balb/c nude mice (n=8/group) and specific PDX tumor fragments (3x3x3 mm^3) were inoculated s.c. in the flank of Balb/c nude mice or NOD/SCID mice (n=4-5/group for efficacy screening and tumor pharmacodynamic experiments, n=8/group for combination experiments). Mice were randomly grouped based on a mean tumor volume (TV) of 100-200 mm^3. For dedicated pharmacodynamic studies, treatment began with TVs of ~400 mm^3. Mice were culled when individual tumors exceeded 1500 mm^3 or if the body-weight loss (BWL) was >15% for 3 consecutive days or reached 20%. Dosing holidays were given to allow recovery for BWL >10%. When the endpoint was reached, mice were culled and plasma and tissue samples obtained. Samples were snap frozen and stored at -80 °C. In some cases, tumors were formalin-fixed and paraffin-embedded (FFPE) following standard procedures. […]

[6] = test system: BR1282 TNBC PDX; conditions: paclitaxel 15 mg/kg, QW, IV alone
Method: as §1
5x10^6 MDA-MB-231 cells were injected subcutaneously (s.c.) in the flank of NCr nude mice (n=8-15/group for efficacy experiments, n=2-3/group for tumor pharmacodynamic evaluation), 1x10^7 SK-OV-3 cells were injected s.c. in the flank of Balb/c nude mice (n=8/group) and specific PDX tumor fragments (3x3x3 mm^3) were inoculated s.c. in the flank of Balb/c nude mice or NOD/SCID mice (n=4-5/group for efficacy screening and tumor pharmacodynamic experiments, n=8/group for combination experiments). Mice were randomly grouped based on a mean tumor volume (TV) of 100-200 mm^3. For dedicated pharmacodynamic studies, treatment began with TVs of ~400 mm^3. Mice were culled when individual tumors exceeded 1500 mm^3 or if the body-weight loss (BWL) was >15% for 3 consecutive days or reached 20%. Dosing holidays were given to allow recovery for BWL >10%. When the endpoint was reached, mice were culled and plasma and tissue samples obtained. Samples were snap frozen and stored at -80 °C. In some cases, tumors were formalin-fixed and paraffin-embedded (FFPE) following standard procedures. […] Paclitaxel (6 mg/mL) was prepared using the clinical formulation (Cremophor-EL) and diluted in 0.9% saline just prior to use. Carboplatin was prepared in 5% glucose in pure water. Dosing and combination regimens for each specific experiment are outlined in the text.
BW is presented as the % ΔBW and as the fractional-change (endpoint/treatment-start) for each group. As an assessment of synergy, the Clarke-Combination-Index (CCI) was applied ([32]) where a CCI of <-0.1 was considered synergistic, >+0.1 antagonistic, and in-between, additive.
Paclitaxel (15 mg/kg) was administered IV QW to BR1282 PDX-bearing mice. […]

[7] = test system: HT29 cells; assay: Flow cytometry cell cycle analysis; type: cell-based; conditions: nocodazole treatment
Method: Cells were fixed in 70% high grade ethanol, washed in PBS, incubated in propidium iodide (PI) solution (50 μg/mL PI and 0.5 mg/mL RNAse A, Sigma-Aldrich, in PBS) for 30 min and analyzed using a BD FACSCanto II flow cytometer (BD Biosciences).

Cc1cc(-c2cnn3c(NC[C@H]4C[C@@](C)(O)C4)cc(Oc4cccnc4)nc23)ccc1C(=O)NC1CC1 [CFI-402257]
reduction in KT-associated BubR1 [1]: Some reduction
GI50 [2]: 31 to 38 nM
maximum tumor growth inhibition [3]: 89%

N.N.O=C([O-])C1(C(=O)[O-])CCC1.[Pt+2] [Carboplatin]
antitumor activity of monotherapy [4]: without activity
Efficacy ΔT/C (day 23) [5]: 0.72
Tolerability ΔT/C (day 23) ([5]; body weight): 0.97

CC(=O)O[C@H]1C(=O)[C@@]2(C)[C@H]([C@H](OC(=O)c3ccccc3)[C@]3(O)C[C@H](OC(=O)[C@H](O)[C@@H](NC(=O)c4ccccc4)c4ccccc4)C(C)=C1C3(C)C)[C@]1(OC(C)=O)CO[C@@H]1C[C@@H]2O [Paclitaxel]
Efficacy ΔT/C (day 16) ([6]; Study 1): 0.24
Regressions (%) (end of treatment day) ([6]; Study 1, day 37, regressions in 1/8 mice): 30 (37)* %
Efficacy ΔT/C (day 13) ([6]; Study 2): 0.48

COC(=O)Nc1nc2ccc(C(=O)c3cccs3)cc2[nH]1 [nocodazole]
accumulation in G2/M of the cell cycle [7]: 67%

CN1CCN(c2ccc(OC(F)(F)F)c(Nc3ncc4c(n3)-c3c(c(C(N)=O)nn3CCO)CC4)c2)CC1 [onvansertib]
reduction in KT-associated BubR1 [1]: minor effects
GI50 [2]: 14 nM
